Data from patent US11033538B2, “Dosing regimens for the treatment of lysosomal storage diseases using pharmacological chaperones” (Amicus Therapeutics, Inc., priority 2007, dated 2021).
Where a chain is given by its changes, count along the chain named. Where two headings read alike, the source gives them in different places.

What was measured:
GCase [1] = biological target: T1, GCase (Homo sapiens, UniProt P04062); test: WBC GCase levels in healthy subjects receiving IFG (Phase 1 multiple-dose study); type: in vivo
T1 construct: endogenous in cells; host or cells: white blood cells of healthy subjects; healthy human skin fibroblasts
T1 sequence (P04062 40-536): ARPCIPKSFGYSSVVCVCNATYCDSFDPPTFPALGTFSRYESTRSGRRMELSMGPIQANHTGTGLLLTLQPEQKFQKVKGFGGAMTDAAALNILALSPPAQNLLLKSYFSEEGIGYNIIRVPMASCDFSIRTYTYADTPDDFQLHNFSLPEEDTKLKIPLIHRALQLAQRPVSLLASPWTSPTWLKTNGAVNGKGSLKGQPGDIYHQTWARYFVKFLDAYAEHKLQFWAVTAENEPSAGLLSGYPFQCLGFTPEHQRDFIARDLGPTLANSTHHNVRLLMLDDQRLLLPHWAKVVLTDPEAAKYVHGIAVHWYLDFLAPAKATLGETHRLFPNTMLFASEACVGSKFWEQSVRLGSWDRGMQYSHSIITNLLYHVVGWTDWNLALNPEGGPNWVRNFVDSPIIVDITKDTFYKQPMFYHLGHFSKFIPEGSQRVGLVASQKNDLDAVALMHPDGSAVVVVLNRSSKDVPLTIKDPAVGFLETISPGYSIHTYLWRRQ
Procedure: (§1) Blood samples were collected for pharmacokinetic analysis before the initial drug administration on Day 1, before the 5th, 6th and 7th doses (on Days 5, 6 and 7) (for Cmin determination), and at the following times after the 1st (Day 1) and 7th (Day 7) doses: 0.5, 1, 1.5, 2, 3, 4, 5, 6, 8, 10, 12, 15, 18, and 24 hours. […] In addition, blood samples were collected for pharmacodynamic measurements, i.e., analysis of WBC GCase levels, before dosing on Day 1, Day 3, Day 5, and Day 7, and at return visits on Day 9, Day 14 and Day 21.

GCase [2] = test: GCase levels and trafficking in vitro with IFG (fibroblasts of GD patients); type: cell-based, human
From the text: (§2) In the lysosome, when the pharmacological chaperone dissociates from the enzyme, the enzyme can perform its normal function, which is to catalyze the breakdown of glucosylceramide (GlcCer), the GCase substrate.

[3] = Phase 1 multiple-dose study of IFG in healthy subjects, plasma pharmacokinetics; type: in vivo, human; details: for Cmax / half-life / Tmax: human, plasma
Procedure: as §1

N370S GCase = biological target: T2, N370S GCase (Homo sapiens, UniProt P04062, N409S); test: Expected N370S GCase accumulation parameters estimated from wild-type PK/PD
T2 sequence (P04062 40-536 N409S): T1 sequence (P04062 40-536) with N370S
From the text: For example, the most prevalent mutation in Gaucher disease is N370S. […] Accordingly, the rate of N370S turnover and the dose that will yield the maximum rate of GCase accumulation, can be estimated based on the differences in PK and PD parameters as compared with the wild-type enzyme: […]

GCase [4] = test: GCase activity in Gaucher patient-derived fibroblasts, lymphoblasts and macrophages after IFG for 5 days; type: cell-based, human; details: lymphoblast and macrophages
From the text: FIGS. 4A, 4B, and 4C. […] FIG. 4A depicts GCase activity in fibroblasts; FIG. 4B depicts GCase activity in lymphoblasts; and FIG. 4C depicts GCase activity in macrophages.

rats [5] = test: Nonclinical toxicology studies of IFG, rats; type: in vivo
From the text: as §2

[6] = Example 10, pharmacokinetic/tissue distribution of isofagomine in rats; type: in vivo
Procedure: A single dose of 600 mg/kg of isofagomine was administered to rats via PO gavage. The concentration of isofagomine (μM) in plasma, liver, spleen and brain tissue was ascertained at regular time intervals at dosing (t=0) through 48 hours after dosing.

GCase [7] = test: IFG in a mouse model of GD; type: in vivo
From the text: as §2

monkeys [8] = test: Nonclinical toxicology studies of IFG, monkeys; type: in vivo
From the text: as §2

in vivo = details: plasma
rats [9] = details: rat, in vivo
[10] = Pharmacokinetics of 1-Deoxynorjirimycin; details: is believed
[11] = Clinical safety and tolerability of 1-Deoxynorjirimycin, single and repeat doses; type: in vivo, human
monkeys [12] = details: monkey, in vivo

## OC[C@H]1CNC[C@@H](O)[C@@H]1O [IFG, (2R,3R,4R)-5-(hydroxymethyl)-piperidine-3,4-diol]
GCase [1]; Wild-type
  Daily dose that yields max rate of accumulation during Initial Enzyme Build-Up phase: ≤75 mg
  Max. rate of enzyme loss: ~−3.5 Units/day
GCase [1]; Wild-type, 1 unit = 1 nmole of 4-MU liberated per mg of total protein per hour
  Max. rate of enzyme accumulation: ~7 Units/day
GCase [1]; healthy subjects
  lowest daily dose that achieved the maximum rate of GCase accumulation over 7 days: about 75 mg
GCase [1]; healthy subjects, 7-day treatment
  maximum increase in GCase enzyme level in white blood cells: approximately 3.5 fold above baseline
GCase [2]; fibroblasts of GD patients
  GCase trafficking to the lysosome: increases GCase trafficking to the lysosome in fibroblasts of GD patients
GCase [2]; in vitro
  GCase total cellular enzyme levels: increases GCase total cellular enzyme levels in vitro
[3]; after 7 days of oral administration, 25, 75 or 225 mg daily
  pharmacokinetic behavior: linear with dose
[3]; oral, 25 mg
  Cmax: 310 nM
[3]; oral, 150 mg
  Cmax: 1700 nM
[3]; oral, healthy subjects, multiple-dose study, SEM: 2 hr., read-out: plasma elimination half-life (converted)
  half-life: ~14 h
[3]; oral, read-out: Half-life (converted)
  half-life: 14 h
[3]; oral, read-out: Tmax
  Tmax: 3 h
[3]; healthy subjects, multiple-dose study, 7 days oral, SEM: 0.6 hr., read-out: Mean plasma levels (Tmax) peaked
  Tmax: ~3.4 h
N370S GCase
  Daily dose that yields max rate of accumulation during Initial Enzyme Build-Up phase: ≤150 to 300 mg
  Max. rate of enzyme accumulation: ~0.35 Units/day
  Max. rate of enzyme loss: ~−0.17 Units/day
GCase [4]
  IFG concentration range at which maximum chaperoning (Emax) occurs: 10 to 100 µM
Rats [5]
  safety and tolerability of repeated dosing: generally safe and well tolerated
[6]; liver and plasma, single 600 mg/kg PO
  time after which levels fall below the GCASE Ki value: 48 h
[6]; single 600 mg/kg PO gavage, plasma, liver, spleen, brain
  time for all tissues to attain levels exceeding the GCase enhancement EC50: ≤ 15 min
[6]; spleen and brain tissue
  clearance from tissue: slower clearance
GCase [7]
  plasma levels of chitinase and IgG: reduces plasma levels of chitinase and immunoglobulin G (IgG)
  tissue GCase activity: increases tissue GCase activity
Monkeys [8]
  safety and tolerability of repeated dosing: generally safe and well tolerated

## OC[C@H]1NC[C@H](O)[C@@H](O)[C@@H]1O [1-Deoxynorjirimycin, (2R,3R,4R,5S)-2-(hydroxymethyl) piperidine-3,4,5-triol]
In vivo
  half-life: 4 to 8 h
Rats [9]
  tolerability in short-term safety studies: well tolerated
[10]
  oral bioavailability: high oral bioavailability
[11]; for 2 weeks
  repeat doses (safe and well tolerated): up to 2 grams per day
[11]; patients receiving drug
  severity of adverse events: mild or moderate in severity
[11]; single doses
  single doses appearing safe and well tolerated: up to 600 mg
Monkeys [12]
  tolerability in short-term safety studies: well tolerated
